# Test results: US11697646B2, “Triazole N-linked carbamoyl cyclohexyl acids as LPA antagonists” (BRISTOL-MYERS SQUIBB COMPANY, priority 2017, dated 2023)
# Structures can show the parent of a compound that is named as a salt.
# Target: T1, human LPA1 (Homo sapiens, UniProt Q92633)
# T1 construct: expressed in transfected cells; host or cells: Chinese hamster ovary (CHO) cells
# Assay: LPA1 functional antagonist assay (calcium flux)
# Assay type: cell-based
# Conditions: CHO cells overexpressing human LPA1; calcium flux induced by 10 nM LPA; read-out: hLPA1 IC50
# Description: The effectiveness of compounds of the present invention as LPA1 inhibitors can be determined in an LPA1 functional antagonist assay as follows:
# The cells were then equilibrated to room temperature for 30 minutes before the assay. […] IC50 values were determined by fitting data to a 4-parameter logistic equation (GraphPad Prism, San Diego Calif.).
# T1 sequence (Q92633 whole entry): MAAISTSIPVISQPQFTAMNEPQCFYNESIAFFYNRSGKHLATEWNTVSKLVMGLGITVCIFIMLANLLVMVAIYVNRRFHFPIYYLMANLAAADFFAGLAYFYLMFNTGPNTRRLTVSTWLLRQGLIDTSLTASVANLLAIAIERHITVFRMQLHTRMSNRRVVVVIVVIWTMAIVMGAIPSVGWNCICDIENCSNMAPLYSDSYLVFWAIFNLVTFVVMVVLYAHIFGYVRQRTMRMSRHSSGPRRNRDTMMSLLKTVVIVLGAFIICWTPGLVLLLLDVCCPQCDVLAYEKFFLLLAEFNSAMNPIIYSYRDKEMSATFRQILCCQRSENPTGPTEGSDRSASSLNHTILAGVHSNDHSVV
row,Compound,IC50 [nM]
1,"Cc1nc(-c2nnn(C)c2CNC(=O)OCCCC(C)(F)F)ccc1O[C@H]1CCC[C@H](C(=O)O)C1 [Example 206, (1S,3S)-3-((6-(5-(((((4,4-difluoropentyl)oxy)carbonyl)amino)methyl)-1-methyl-1H-1,2,3-triazol-4-yl)-2-methylpyridin-3-yl)oxy)cyclohexane-1-carboxylicacid]",71
2,"Cc1nc(-c2nnn(C)c2CNC(=O)OC[C@@H]2CC2(F)F)ccc1O[C@H]1CCC[C@H](C(=O)O)C1 [Example 208, (1S,3S)-3-((6-(5-((((((S)-2,2-difluorocyclopropyl)methoxy)carbonyl)amino)methyl)-1-methyl-1H-1,2,3-triazol-4-yl)-2-methylpyridin-3-yl)oxy)cyclohexane-1-carboxylate diethylammonium salt]",57
3,"Cc1nc(-c2nnn(C)c2CNC(=O)OCC2CCC2)c(F)cc1O[C@H]1CCC[C@H](C(=O)O)C1 [Example 212, (1S,3S)-3-((6-(5-((((cyclobutylmethoxy)carbonyl)amino)methyl)-1-methyl-1H-1,2,3-triazol-4-yl)-5-fluoro-2-methylpyridin-3-yl)oxy)cyclohexane-1-carboxylic acid]",112
4,Cc1nc(-c2nnn(C)c2CNC(=O)OCC(C)C)c(F)cc1O[C@H]1CCC[C@H](C(=O)O)C1 [Example 213],382
5,"Cc1nc(-c2nnn(C)c2CNC(=O)OC2CC3(CC3)C2)c(F)cc1O[C@H]1CCC[C@H](C(=O)O)C1 [Example 214, (1S,3S)-3-((5-fluoro-2-methyl-6-(1-methyl-5-((((spiro[2.3]hexan-5-yloxy)carbonyl)amino)methyl)-1H-1,2,3-triazol-4-yl)pyridin-3-yl)oxy)cyclohexane-1-carboxylic acid]",129
6,"Cc1nc(-c2nnn(C)c2CNC(=O)OCC2(C)CC2)c(F)cc1O[C@H]1CCC[C@H](C(=O)O)C1 [Example 215, (1S,3S)-3-((5-fluoro-2-methyl-6-(1-methyl-5-(((((1-methylcyclopropyl)methoxy)carbonyl)amino)methyl)-1H-1,2,3-triazol-4-yl)pyridin-3-yl)oxy)cyclohexane-1-carboxylic acid]",112
7,"CCC1(COC(=O)NCc2c(-c3nc(C)c(O[C@H]4CCC[C@H](C(=O)O)C4)cc3F)nnn2C)CC1 [Example 216, (1S,3S)-3-((6-(5-(((((1-ethylcyclo-propyl)methoxy)carbonyl)amino)methyl)-1-methyl-1H-1,2,3-triazol-4-yl)-5-fluoro-2-methylpyridin-3-yl)oxy)cyclohexane-1-carboxylic acid]",46
8,CCCCOC(=O)Nc1c(-c2nc(C)c(O[C@H]3CCC[C@H](C(=O)O)C3)cc2F)nnn1C [Example 217],72
9,"Cc1nc(-c2nnn(C)c2NC(=O)OCC2CC2)c(F)cc1O[C@H]1CCC[C@H](C(=O)O)C1 [Example 218, (1S,3S)-3-{[6-(5-{[(cyclopropylmethoxy)carbonyl]amino}-1-methyl-1H-1,2,3-triazol-4-yl)-5-fluoro-2-methylpyridin-3-yl]oxy} cyclohexane-1-carboxylic acid]",300
10,"Cc1nc(-c2nnn(C)c2NC(=O)OCC(C)C)c(F)cc1O[C@H]1CCC[C@H](C(=O)O)C1 [Example 219, (1S,3S)-3-((5-fluoro-6-(5-((isobutoxycarbonyl)amino)-1-methyl-1H-1,2,3-triazol-4-yl)-2-methylpyridin-3-yl)oxy)cyclohexane-1-carboxylic acid]",152
11,"CC(C)OC(=O)Nc1c(-c2ccc(O[C@H]3CCC[C@H](C(=O)O)C3)cn2)nnn1C [Example 220, (1S,3S)-3-((6-(5-((isopropoxy-carbonyl)amino)-1-methyl-1H-1,2,3-triazol-4-yl)pyridin-3-yl)oxy)cyclohexane-1-carboxylic acid]",389

# Same assay, conditions: human LPA1 functional antagonist assay; read-out: hLPA1 IC50
row,Compound,IC50 [nM]
1,"CC[C@H](C)OC(=O)NCc1c(-c2ccc(O[C@H]3CCC[C@H](C(=O)O)C3)c(C)n2)nnn1C [Example 175, (1S,3S)-3-((6-(5-((((S)-sec-butoxy-carbonyl)amino)methyl)-1-methyl-1H-1,2,3-triazol-4-yl)-2-methyl-pyridin-3-yl)oxy)cyclohexane-1-carboxylic acid]",95
2,"Cc1nc(-c2nnn(C)c2CNC(=O)O[C@@H](C)C2CC2)ccc1O[C@H]1CCC[C@H](C(=O)O)C1 [Example 176, (1S,3S)-3-((6-(5-(((((S)-1-cyclo-propylethoxy)carbonyl)amino)methyl)-1-methyl-1H-1,2,3-triazol-4-yl)-2-methylpyridin-3-yl)oxy)cyclo-hexane-1-carboxylic acid]",106
3,"Cc1nc(-c2nnn(C)c2CNC(=O)OC2CCC2)ccc1O[C@H]1CCC[C@H](C(=O)O)C1 [Example 177, (1S,3S)-3-((6-(5-(((cyclobutoxycarbonyl)amino)methyl)-1-methyl-1H-1,2,3-triazol-4-yl)-2-methyl-pyridin-3-yl)oxy)cyclohexane-1-carboxylic acid]",148
4,"Cc1nc(-c2nnn(C)c2CNC(=O)OC2CC(F)(F)C2)ccc1O[C@H]1CCC[C@H](C(=O)O)C1 [Example 178, (1S,3S)-3-((6-(5-((((3,3-difluoro-cyclobutoxy)carbonyl)amino)methyl)-1-methyl-1H-1,2,3-triazol-4-yl)-2-methylpyridin-3-yl)oxy)cyclo-hexane-1-carboxylic acid]",102
5,"Cc1nc(-c2nnn(C)c2CNC(=O)OCC2CC2C)ccc1O[C@H]1CCC[C@H](C(=O)O)C1 (stereo partly drawn) [Example 179, (1S,3S)-3((2-methyl-6-(1-methyl-5-(((((2-methylcyclopropyl)methoxy)carbonyl)amino)methyl)-1H-1,2,3-triazol-4-yl)pyridin-3-yl)oxy)cyclohexane-1-carboxylic acid]",46
6,"Cc1nc(-c2nnn(C)c2CNC(=O)OCCC(F)(F)F)ccc1O[C@H]1CCC[C@H](C(=O)O)C1 [Example 181, (1S,3S)-3-((2-methyl-6-(1-methyl-5-((((3,3,3-trifluoropropoxy)carbonyl)amino)methyl)-1H-1,2,3-triazol-4-yl)pyridin-3-yl)oxy)cyclohexane-1-carboxylic acid]",96
7,"Cc1nc(-c2nnn(C)c2CNC(=O)OCC2CC(F)(F)C2)ccc1O[C@H]1CCC[C@H](C(=O)O)C1 [Example 182, (1S,3S)-3-((6-(5-(((((3,3-difluoro-cyclobutyl)methoxy)carbonyl)amino)methyl)-1-methyl-1H-1,2,3-triazol-4-yl)-2-methylpyridin-3-yl)oxy)cyclohexane-1-carboxylic acid]",85
8,"Cc1nc(-c2nnn(C)c2CNC(=O)OCC(C)C2CC2)ccc1O[C@H]1CCC[C@H](C(=O)O)C1 (stereo partly drawn) [Example 184, (1S,3S)-3-((6-(5-((((2-cyclopropylpropoxy)carbonyl)amino)methyl)-1-methyl-1H-1,2,3-triazol-4-yl)-2-methylpyridin-3-yl)oxy)cyclo-hexane-1-carboxylic acid]",41
9,"Cc1nc(-c2nnn(C)c2CNC(=O)OCCC2(C)CC2)ccc1O[C@H]1CCC[C@H](C(=O)O)C1 [Example 195, (1S,3S)-3((2-methyl-6-(1-methyl-5-((((2-(1-methylcyclopropyl)ethoxy)carbonyl)amino)methyl)-1H-1,2,3-triazol-4-yl)pyridin-3-yl)oxy)cyclohexane-1-carboxylic acid]",72
10,"Cc1nc(-c2nnn(C)c2CNC(=O)OCC(C)CC(F)F)ccc1O[C@H]1CCC[C@H](C(=O)O)C1 (stereo partly drawn) [Example 196, (1S,3S)-3-((6-(5-((((4,4-difluoro-2-methylbutoxy)carbonyl)amino)methyl)-1-methyl-1H-1,2,3-triazol-4-yl)-2-methylpyridin-3-yl)oxy)cyclo-hexane-1-carboxylic acid]",83
11,"Cc1nc(-c2nnn(C)c2CNC(=O)OCCC(C)C)ccc1O[C@H]1CCC[C@H](C(=O)O)C1 [Example 197, (1S,3S)-3-((6-(5-((((isopentyloxy)carbonyl)amino)methyl)-1-methyl-1H-1,2,3-triazol-4-yl)-2-methyl-pyridin-3-yl)oxy)cyclohexane-1-carboxylic acid]",16
12,Cc1nc(-c2nnn(C)c2CNC(=O)OCC(F)(F)C(F)(F)F)ccc1O[C@H]1CCC[C@H](C(=O)O)C1 [Example 198],45
13,"CC(=O)CCCOC(=O)NCc1c(-c2ccc(O[C@H]3CCC[C@H](C(=O)O)C3)c(C)n2)nnn1C [Example 199, (1S,3S)-3((2-methyl-6-(1-methyl-5-(((((4-oxopentyl)oxy)carbonyl)amino)methyl)-1H-1,2,3-triazol-4-yl)pyridin-3-yl)oxy)cyclohexane-1-carboxylic acid]",312
14,"Cc1nc(-c2nnn(C)c2CNC(=O)OC2CC3(CC3)C2)ccc1O[C@H]1CCC[C@H](C(=O)O)C1 [Example 201, (1S,3S)-3-((2-methyl-6-(1-methyl-5-((((spiro[2.3]hexan-5-yloxy)carbonyl)amino)methyl)-1H-1,2,3-triazol-4-yl)pyridin-3-yl)oxy)cyclohexane-1-carboxylic acid]",42
15,"Cc1nc(-c2nnn(C)c2CNC(=O)OCCC(C)(F)F)ccc1O[C@H]1CCC[C@H](C(=O)O)C1 [Example 202, (1S,3S)-3-((6-(5-((((3,3-difluorobutoxy)carbonyl)amino)methyl)-1-methyl-1H-1,2,3-triazol-4-yl)-2-methylpyridin-3-yl)oxy) cyclo-hexane-1-carboxylic acid]",86
16,"Cc1nc(-c2nnn(C)c2CN(C)C(=O)OCC(C)C)ccc1O[C@H]1CCC[C@H](C(=O)O)C1 [Example 203, (1S,3S)-3-((6-(5-(((isobutoxy-carbonyl)(methyl)amino)methyl)-1-methyl-1H-1,2,3-triazol-4-yl)-2-methylpyridin-3-yl)oxy)cyclo-hexane-1-carboxylic acid]",91
17,"Cc1nc(-c2nnn(C)c2CN(C)C(=O)OCC2CC2)ccc1O[C@H]1CCC[C@H](C(=O)O)C1 [Example 205, (1S,3S)-3-((6-(5-((((cyclopropylmethoxy)carbonyl)(methyl)amino)methyl)-1-methyl-1H-1,2,3-triazol-4-yl)-2-methyl-pyridin-3-yl)oxy)cyclohexane-1-carboxylic acid, TFA salt]",333
